Results from ChEMBL document CHEMBL1944514, “Fluorescence detection of single nucleotide polymorphisms using nucleic acid probe containing tricyclic base-linked acyclonucleoside” (Bioorg Med Chem Lett, 2012).
Active and inactive are the calls of the source. The rule behind the calls is not given here.

Key:
Type in all cases: nucleic-acid assay
[1] = test system: Nucleic Acid; assay: Binding affinity to 3'-r(CUUCCAGUUACAUAGAGA)-5' RNA assessed as change in melting temperature by spectrophotometry
[2] = test system: Nucleic Acid; assay: Binding affinity to 3'-r(CUUCCAGUUCCAUAGAGA)-5' RNA assessed as change in melting temperature by spectrophotometry
[3] = test system: Nucleic Acid; assay: Binding affinity to 3'-r(CUUCCAGUUGCAUAGAGA)-5' RNA assessed as fluorescence quenching by spectrophotometry
[4] = test system: Nucleic Acid; assay: Binding affinity to 3'-r(CUUCCAGUUUCAUAGAGA)-5' RNA assessed as change in melting temperature by spectrophotometry
[5] = test system: Nucleic Acid; assay: Binding affinity to 3'-r(CUUCCAGUUACAUAGAGA)-5' RNA assessed as fluorescence quenching by spectrophotometry
[6] = test system: Nucleic Acid; assay: Binding affinity to 3'-r(CUUCCAGUUCCAUAGAGA)-5' RNA assessed as fluorescence quenching by spectrophotometry
[7] = test system: Nucleic Acid; assay: Binding affinity to 3'-r(CUUCCAGUUUCAUAGAGA)-5' RNA assessed as fluorescence quenching by spectrophotometry
[8] = test system: Nucleic Acid; assay: Binding affinity to 3'-r(CUUCCAGUUGCAUAGAGA)-5' RNA assessed as change in melting temperature by spectrophotometry

Row | Structure (SMILES) | ΔTm [1] | Activity [2] | Activity [3] | ΔTm [4] | Activity [5] | Activity [6] | Activity [7] | ΔTm [8] | Activity [1] | ΔTm [2] | Activity [4] | Activity [8]
1 | Cc1cn([C@H]2C[C@H](OP(=O)(O)OC[C@H]3O[C@@H](n4ccc(N)nc4=O)C[C@@H]3OP(=O)(O)OC[C@H]3O[C@@H](n4cnc5c(N)ncnc54)C[C@@H]3OP(=O)(O)OC[C@H]3O[C@@H](n4cnc5c(N)ncnc54)C[C@@H]3OP(=O)(O)OC[C@H](Cn3cnc4cc5c(N)nc(N)nc5nc43)OP(=O)(O)OC[C@H]3O[C@@H](n4cnc5c(=O)[nH]c(N)nc54)C[C@@H]3OP(=O)(O)OC[C@H]3O[C@@H](n4cnc5c(=O)[nH]c(N)nc54)C[C@@H]3OP(=O)(O)CC[C@H]3O[C@@H](n4cc(C)c(=O)[nH]c4=O)C[C@@H]3OP(=O)(O)OC[C@H]3O[C@@H](n4cnc5c(N)ncnc54)C[C@@H]3OP(=O)(O)OC[C@H]3O[C@@H](n4cc(C)c(=O)[nH]c4=O)C[C@@H]3OP(=O)(O)OC[C@H]3O[C@@H](n4ccc(N)nc4=O)C[C@@H]3OP(=O)(O)OC[C@H]3O[C@@H](n4cc(C)c(=O)[nH]c4=O)C[C@@H]3OP(=O)(O)OC[C@H]3O[C@@H](n4ccc(N)nc4=O)C[C@@H]3OP(=O)(O)OC[C@H]3O[C@@H](n4cc(C)c(=O)[nH]c4=O)C[C@@H]3O)[C@@H](COP(=O)(O)O[C@H]3C[C@H](n4cnc5c(=O)[nH]c(N)nc54)O[C@@H]3COP(=O)(O)O[C@H]3C[C@H](n4cnc5c(=O)[nH]c(N)nc54)O[C@@H]3COP(=O)(O)O[C@H]3C[C@H](n4cnc5c(N)ncnc54)O[C@@H]3COP(=O)(O)O[C@H]3C[C@H](n4cnc5c(N)ncnc54)O[C@@H]3COP(=O)(O)O[C@H]3C[C@H](n4cnc5c(=O)[nH]c(N)nc54)O[C@@H]3CO)O2)c(=O)nc1N | -5.9 °C | inactive | Active | -4.6 °C | Active | inactive | Active | -4.3 °C |  |  |  | 
2 | Cc1cn([C@H]2C[C@H](OP(=O)(O)OC[C@H]3O[C@@H](n4ccc(N)nc4=O)C[C@@H]3OP(=O)(O)OC[C@H]3O[C@@H](n4cnc5c(N)ncnc54)C[C@@H]3OP(=O)(O)OC[C@H]3O[C@@H](n4cnc5c(N)ncnc54)C[C@@H]3OP(=O)(O)OC[C@H](Cn3cnc4cc5c(N)nc(N)nc5nc43)OP(=O)(O)OC[C@H]3O[C@@H](n4cc(C)c(=O)[nH]c4=O)C[C@@H]3OP(=O)(O)OC[C@H]3O[C@@H](n4cnc5c(=O)[nH]c(N)nc54)C[C@@H]3OP(=O)(O)CC[C@H]3O[C@@H](n4cc(C)c(=O)[nH]c4=O)C[C@@H]3OP(=O)(O)OC[C@H]3O[C@@H](n4cnc5c(N)ncnc54)C[C@@H]3OP(=O)(O)OC[C@H]3O[C@@H](n4cc(C)c(=O)[nH]c4=O)C[C@@H]3OP(=O)(O)OC[C@H]3O[C@@H](n4ccc(N)nc4=O)C[C@@H]3OP(=O)(O)OC[C@H]3O[C@@H](n4cc(C)c(=O)[nH]c4=O)C[C@@H]3OP(=O)(O)OC[C@H]3O[C@@H](n4ccc(N)nc4=O)C[C@@H]3OP(=O)(O)OC[C@H]3O[C@@H](n4cc(C)c(=O)[nH]c4=O)C[C@@H]3O)[C@@H](COP(=O)(O)O[C@H]3C[C@H](n4cnc5c(=O)[nH]c(N)nc54)O[C@@H]3COP(=O)(O)O[C@H]3C[C@H](n4cnc5c(=O)[nH]c(N)nc54)O[C@@H]3COP(=O)(O)O[C@H]3C[C@H](n4cnc5c(N)ncnc54)O[C@@H]3COP(=O)(O)O[C@H]3C[C@H](n4cnc5c(N)ncnc54)O[C@@H]3COP(=O)(O)O[C@H]3C[C@H](n4cnc5c(=O)[nH]c(N)nc54)O[C@@H]3CO)O2)c(=O)nc1N |  |  | inactive | -1.8 °C | inactive | Active | Active | -1.9 °C | inactive | -3.5 °C |  | 
3 | Cc1cn([C@H]2C[C@H](OP(=O)(O)OC[C@H]3O[C@@H](n4ccc(N)nc4=O)C[C@@H]3OP(=O)(O)OC[C@H]3O[C@@H](n4cnc5c(N)ncnc54)C[C@@H]3OP(=O)(O)OC[C@H]3O[C@@H](n4cnc5c(N)ncnc54)C[C@@H]3OP(=O)(O)OC[C@H](Cn3cnc4cc5c(N)nc(N)nc5nc43)OP(=O)(O)OC[C@H]3O[C@@H](n4cnc5c(N)ncnc54)C[C@@H]3OP(=O)(O)OC[C@H]3O[C@@H](n4cnc5c(=O)[nH]c(N)nc54)C[C@@H]3OP(=O)(O)CC[C@H]3O[C@@H](n4cc(C)c(=O)[nH]c4=O)C[C@@H]3OP(=O)(O)OC[C@H]3O[C@@H](n4cnc5c(N)ncnc54)C[C@@H]3OP(=O)(O)OC[C@H]3O[C@@H](n4cc(C)c(=O)[nH]c4=O)C[C@@H]3OP(=O)(O)OC[C@H]3O[C@@H](n4ccc(N)nc4=O)C[C@@H]3OP(=O)(O)OC[C@H]3O[C@@H](n4cc(C)c(=O)[nH]c4=O)C[C@@H]3OP(=O)(O)OC[C@H]3O[C@@H](n4ccc(N)nc4=O)C[C@@H]3OP(=O)(O)OC[C@H]3O[C@@H](n4cc(C)c(=O)[nH]c4=O)C[C@@H]3O)[C@@H](COP(=O)(O)O[C@H]3C[C@H](n4cnc5c(=O)[nH]c(N)nc54)O[C@@H]3COP(=O)(O)O[C@H]3C[C@H](n4cnc5c(=O)[nH]c(N)nc54)O[C@@H]3COP(=O)(O)O[C@H]3C[C@H](n4cnc5c(N)ncnc54)O[C@@H]3COP(=O)(O)O[C@H]3C[C@H](n4cnc5c(N)ncnc54)O[C@@H]3COP(=O)(O)O[C@H]3C[C@H](n4cnc5c(=O)[nH]c(N)nc54)O[C@@H]3CO)O2)c(=O)nc1N | -3.5 °C |  | Active |  | Active | Active | inactive | -2.9 °C |  | -3.4 °C | inactive | 
4 | Cc1cn([C@H]2C[C@H](OP(=O)(O)OC[C@H]3O[C@@H](n4ccc(N)nc4=O)C[C@@H]3OP(=O)(O)OC[C@H]3O[C@@H](n4cnc5c(N)ncnc54)C[C@@H]3OP(=O)(O)OC[C@H]3O[C@@H](n4cnc5c(N)ncnc54)C[C@@H]3OP(=O)(O)OC[C@H]3O[C@@H](n4cnc5c(=O)[nH]c(N)nc54)C[C@@H]3OP(=O)(O)OC[C@H](Cn3cnc4cc5c(N)nc(N)nc5nc43)OP(=O)(O)OC[C@H]3O[C@@H](n4cnc5c(=O)[nH]c(N)nc54)C[C@@H]3OP(=O)(O)CC[C@H]3O[C@@H](n4cc(C)c(=O)[nH]c4=O)C[C@@H]3OP(=O)(O)OC[C@H]3O[C@@H](n4cnc5c(N)ncnc54)C[C@@H]3OP(=O)(O)OC[C@H]3O[C@@H](n4cc(C)c(=O)[nH]c4=O)C[C@@H]3OP(=O)(O)OC[C@H]3O[C@@H](n4ccc(N)nc4=O)C[C@@H]3OP(=O)(O)OC[C@H]3O[C@@H](n4cc(C)c(=O)[nH]c4=O)C[C@@H]3OP(=O)(O)OC[C@H]3O[C@@H](n4ccc(N)nc4=O)C[C@@H]3OP(=O)(O)OC[C@H]3O[C@@H](n4cc(C)c(=O)[nH]c4=O)C[C@@H]3O)[C@@H](COP(=O)(O)O[C@H]3C[C@H](n4cnc5c(=O)[nH]c(N)nc54)O[C@@H]3COP(=O)(O)O[C@H]3C[C@H](n4cnc5c(=O)[nH]c(N)nc54)O[C@@H]3COP(=O)(O)O[C@H]3C[C@H](n4cnc5c(N)ncnc54)O[C@@H]3COP(=O)(O)O[C@H]3C[C@H](n4cnc5c(N)ncnc54)O[C@@H]3COP(=O)(O)O[C@H]3C[C@H](n4cnc5c(=O)[nH]c(N)nc54)O[C@@H]3CO)O2)c(=O)nc1N | -3.1 °C | inactive | Active | -2.9 °C | Active | inactive | Active | -3 °C |  |  |  | 
5 | Cc1cn([C@H]2C[C@H](OP(=O)(O)OC[C@H]3O[C@@H](n4ccc(N)nc4=O)C[C@@H]3OP(=O)(O)OC[C@H]3O[C@@H](n4cnc5c(N)ncnc54)C[C@@H]3OP(=O)(O)OC[C@H]3O[C@@H](n4cnc5c(N)ncnc54)C[C@@H]3OP(=O)(O)OC[C@H]3O[C@@H](n4ccc(N)nc4=O)C[C@@H]3OP(=O)(O)OC[C@H](Cn3cnc4cc5c(N)nc(N)nc5nc43)OP(=O)(O)OC[C@H]3O[C@@H](n4cnc5c(=O)[nH]c(N)nc54)C[C@@H]3OP(=O)(O)CC[C@H]3O[C@@H](n4cc(C)c(=O)[nH]c4=O)C[C@@H]3OP(=O)(O)OC[C@H]3O[C@@H](n4cnc5c(N)ncnc54)C[C@@H]3OP(=O)(O)OC[C@H]3O[C@@H](n4cc(C)c(=O)[nH]c4=O)C[C@@H]3OP(=O)(O)OC[C@H]3O[C@@H](n4ccc(N)nc4=O)C[C@@H]3OP(=O)(O)OC[C@H]3O[C@@H](n4cc(C)c(=O)[nH]c4=O)C[C@@H]3OP(=O)(O)OC[C@H]3O[C@@H](n4ccc(N)nc4=O)C[C@@H]3OP(=O)(O)OC[C@H]3O[C@@H](n4cc(C)c(=O)[nH]c4=O)C[C@@H]3O)[C@@H](COP(=O)(O)O[C@H]3C[C@H](n4cnc5c(=O)[nH]c(N)nc54)O[C@@H]3COP(=O)(O)O[C@H]3C[C@H](n4cnc5c(=O)[nH]c(N)nc54)O[C@@H]3COP(=O)(O)O[C@H]3C[C@H](n4cnc5c(N)ncnc54)O[C@@H]3COP(=O)(O)O[C@H]3C[C@H](n4cnc5c(N)ncnc54)O[C@@H]3COP(=O)(O)O[C@H]3C[C@H](n4cnc5c(=O)[nH]c(N)nc54)O[C@@H]3CO)O2)c(=O)nc1N | -3.9 °C |  | inactive | -1.1 °C | Active | Active | Active |  |  | -3.2 °C |  | inactive
